For assay [1], the target named is thrombin (Homo sapiens, UniProt P00734). The note with it: it is known; cited from earlier work.
For assay [2], the target named is T1, Plasmin (Homo sapiens, UniProt P00747). The conditions noted are these: it is known; cited from earlier work.
Target sequence in this assay (P00747 581-810 limits assumed, species assumed): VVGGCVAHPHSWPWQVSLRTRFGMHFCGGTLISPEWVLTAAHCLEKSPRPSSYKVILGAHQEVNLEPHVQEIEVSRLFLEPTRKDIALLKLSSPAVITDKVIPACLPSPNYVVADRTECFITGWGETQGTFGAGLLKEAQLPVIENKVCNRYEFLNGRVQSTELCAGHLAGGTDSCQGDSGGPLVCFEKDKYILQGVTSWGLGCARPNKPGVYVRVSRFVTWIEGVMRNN
Target sequence in this assay (P00747 97-580 partner limits assumed, species assumed): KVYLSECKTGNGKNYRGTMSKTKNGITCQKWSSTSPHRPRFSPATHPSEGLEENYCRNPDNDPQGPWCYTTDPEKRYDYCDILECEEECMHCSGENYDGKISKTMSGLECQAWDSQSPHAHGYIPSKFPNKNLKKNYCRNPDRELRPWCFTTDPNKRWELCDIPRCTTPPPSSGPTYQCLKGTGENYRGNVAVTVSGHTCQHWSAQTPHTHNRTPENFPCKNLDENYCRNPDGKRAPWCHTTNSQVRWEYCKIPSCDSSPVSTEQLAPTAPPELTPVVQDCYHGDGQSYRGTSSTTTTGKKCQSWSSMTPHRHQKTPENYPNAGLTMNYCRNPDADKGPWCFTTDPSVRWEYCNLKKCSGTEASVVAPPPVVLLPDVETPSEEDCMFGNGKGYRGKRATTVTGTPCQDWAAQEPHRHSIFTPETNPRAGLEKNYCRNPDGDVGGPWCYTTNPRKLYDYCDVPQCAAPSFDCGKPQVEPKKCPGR
Assay [3] addresses factor Xa (Homo sapiens, UniProt P00742). The conditions noted are these: it is known; cited from earlier work.
The target in the next assay is T2, Trypsin (Bos taurus, UniProt P00760).
T2 construct: purchased Wersinton (so in the source)
T2 sequence (P00760 24-246): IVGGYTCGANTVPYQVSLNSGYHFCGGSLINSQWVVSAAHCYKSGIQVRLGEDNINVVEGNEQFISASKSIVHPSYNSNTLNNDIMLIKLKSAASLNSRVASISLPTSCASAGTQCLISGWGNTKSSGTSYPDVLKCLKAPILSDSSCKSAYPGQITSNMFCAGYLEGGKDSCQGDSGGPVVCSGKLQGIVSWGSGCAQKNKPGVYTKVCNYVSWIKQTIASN
As to the kind of experiment: Substrate specificity: enzyme reaction with trypsin, colorimetric. The format is biochemical, Bovine. The note with it: for absorbance (O.D.) measured, Try: So = 0.4 mmol, 37° C., 5 minutes, pH 8.0. The protocol:
(§1) Specificity of each of the new substrates synthesized in Examples 1 through 4 was examined by reacting with each enzyme. Details of reagents used are as described below.
(§2) (2) Buffer: concentration of Tris, NaCl and CaCl2 and pH (25° C.) were set as shown below, depending upon enzyme. […]
(§3) Enzyme used and its source, etc. are as follows. […]
Trypsin Bovine Wersinton 31M771 10 μg/ml
(§4) (4) Terminate solution (PNA): 10% acetic acid
(§5) (5) Color forming reagent (CHA): pentacyanoamineferroate
(§6) Buffer, 0.5 ml and 0.1 ml of substrate solution are charged in a silicone-treated hard glass test tube or plastic test tube. The mixture is previously heated for 10 minutes in a thermostat at 37° C. Then, 0.1 ml of enzyme solution is added to the mixture to perform enzyme reaction at 37° C. for 5 minutes. Accurately 5 minutes after, 2.0 ml of the terminate solution is added to stop the enzyme reaction. Then the reaction mixture is allowed to stand at 37° C. for 10 minutes and its absorbance is measured at 405 nm or 700 nm.

Assay [4] has as its target T3, Factor Xa (Bos taurus, UniProt P00743).
T3 construct: purchased Sigma Inc. Lot 73F-9450
As to the kind of experiment: Substrate specificity: enzyme reaction with factor Xa, colorimetric. The format is biochemical, Bovine. The conditions noted are these: for absorbance (O.D.) measured, FXa: So = 0.4 mmol, 37° C., 5 minutes, pH 8.3. The protocol:
as §1, §2, §3, §4, §5, §6

In assay [5] the target is T4, Thrombin (Bos taurus, UniProt P00735).
T4 construct: purchased Mochida Pharmaceutical Company Lot 65146
As to the kind of experiment: Substrate specificity: enzyme reaction with thrombin, colorimetric. The format is biochemical, Bovine. The note with it: for absorbance (O.D.) measured, TH: So = 0.4 mmol, 37° C., 5 minutes, pH 8.5. The protocol: as §1, §2, §3, §4, §5, §6

The subject of the next assay is Kallikrein. Briefly: Substrate specificity: enzyme reaction with kallikrein, colorimetric. The note with it: So = 0.4 mmol, 37° C., 5 minutes, pH 7.8. The format is biochemical, Swine. On the procedure:
as §1, §2, §3, §4, §5, §6

The target of assay [6] is T1, Plasmin. Briefly: Substrate specificity: enzyme reaction with plasmin, colorimetric. In kind it is biochemical. Also noted: purchased Green Cross Company Lot PL-35. The conditions noted are these: for absorbance (O.D.) measured, PL: So = 0.4 mmol, 37° C., 5 minutes, pH 7.8. On the procedure: as §1, §2, §3
Target sequence in this assay (P00747 581-810 limits assumed): as the sequence (P00747 581-810 limits assumed, species assumed) above
Target sequence in this assay (P00747 97-580 partner limits assumed): as the sequence (P00747 97-580 partner limits assumed, species assumed) above
Plasmin Human Green Cross PL-35 0.25 CU/ml
as §4, §5, §6

[7] abbreviates: 700 nm, pentacyanoamineferroate.
Setting [8] is: CHR-TRY is made 100, So=0.4 mmol.

Counter-ions that a name gives are not always drawn. Where a SMILES comes first, the peptide text is derived from it.

T3 sequence (P00743 234-492 limits assumed): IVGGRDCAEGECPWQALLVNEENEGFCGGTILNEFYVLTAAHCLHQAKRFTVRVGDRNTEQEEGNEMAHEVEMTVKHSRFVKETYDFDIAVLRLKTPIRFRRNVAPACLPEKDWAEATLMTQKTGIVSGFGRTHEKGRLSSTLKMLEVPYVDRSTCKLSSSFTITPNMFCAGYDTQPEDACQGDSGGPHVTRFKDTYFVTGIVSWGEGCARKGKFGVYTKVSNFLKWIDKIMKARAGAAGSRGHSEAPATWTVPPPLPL
T3 sequence (P00743 41-180 partner limits assumed): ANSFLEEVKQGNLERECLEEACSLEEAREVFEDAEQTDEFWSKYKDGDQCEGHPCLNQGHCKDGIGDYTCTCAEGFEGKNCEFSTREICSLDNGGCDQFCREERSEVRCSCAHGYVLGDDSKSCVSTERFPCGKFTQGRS
Sequence of factor Xa (P00742 235-488 limits assumed): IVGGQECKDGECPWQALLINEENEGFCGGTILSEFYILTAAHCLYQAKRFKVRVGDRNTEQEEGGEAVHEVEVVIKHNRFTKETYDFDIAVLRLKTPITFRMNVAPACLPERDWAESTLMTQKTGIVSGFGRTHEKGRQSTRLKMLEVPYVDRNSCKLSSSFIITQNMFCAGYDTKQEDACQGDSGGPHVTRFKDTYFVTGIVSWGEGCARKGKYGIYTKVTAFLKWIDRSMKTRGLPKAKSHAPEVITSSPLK
Sequence of factor Xa (P00742 41-179 partner limits assumed): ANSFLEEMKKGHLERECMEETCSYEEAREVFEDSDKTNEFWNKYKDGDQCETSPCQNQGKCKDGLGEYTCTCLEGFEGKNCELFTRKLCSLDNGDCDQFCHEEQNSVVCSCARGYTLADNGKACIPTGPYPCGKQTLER

As to `CC(C)[C@H](NC(=O)OCc1ccccc1)C(=O)NCC(=O)N[C@@H](CCCNC(=N)N)C(=O)Nc1ccc([N+](=O)[O-])cc1` [CHR-TRY, Benzyloxy-carbonyl-Val-Gly-Arg-p-Nitroanilide, reference compound] (HELM PEPTIDE1{[O=C(OCc1ccccc1)[*:2]].V.G.R.[O=[N+]([O-])c1ccc(N[*:1])cc1]}$$$$V2.0), the reaction with thrombin entry on thrombin [1] is “considerably reacts”. Also, the reaction with plasmin result on Plasmin [2] is “considerably reacts”. Moreover, at factor Xa [3], the “reaction with factor Xa” value was “considerably reacts”. Also, on Trypsin (405 nm (PNA substrate)), the “absorbance (O.D.) measured, Try” value worked out at 0.243 O.D. For the same compound, the “absorbance (O.D.) measured, FXa” value at Factor Xa [4] (405 nm (PNA substrate)) is reported as 0.090 O.D. In addition, the “absorbance (O.D.) measured, TH” value on Thrombin [5] (405 nm (PNA substrate)) stood at 0.050 O.D. Besides, in the assay on Kallikrein (405 nm (PNA substrate)), the “absorbance (O.D.) measured, KL” value amounted to 0.008 O.D. Also, the “absorbance (O.D.) measured, PL” value on Plasmin [6] (405 nm (PNA substrate)) is 0.014 O.D.
Consider `N=C(N)NCCC[C@H](NC(=O)[C@@H]1CCCN1C(=O)[C@@H]1CCC(=O)N1)C(=O)Nc1ccc(O)c(C(=O)O)c1` [PS-1242, H--PyroGlu--Pro--Arg--CHA], for which, at Trypsin (setting [7]), the “absorbance (O.D.) measured, Try” value is 0.570 O.D. For the same compound, the “absorbance (O.D.) measured, FXa” value on Factor Xa [4] (setting [7]) was 0.008 O.D. Further, the “absorbance (O.D.) measured, TH” value on Thrombin [5] (setting [7]) was found to be 0.022 O.D. The “absorbance (O.D.) measured, KL” value with Kallikrein (setting [7]) worked out at 0.004 O.D. Moreover, the “absorbance (O.D.) measured, PL” value at Plasmin [6] (setting [7]) turned out to be 0.013 O.D.
`C[C@H](NC(=O)[C@@H]1CCC(=O)N1)C(=O)N[C@@H](CCCNC(=N)N)C(=O)Nc1ccc(O)c(C(=O)O)c1` [PS-1245, H-PyroGlu-Ala-Arg-CHA]: the “absorbance (O.D.) measured, Try” value on Trypsin (setting [7]) was 0.676 O.D. Also, the “reactivity with trypsin relative to CHR-TRY” value at Trypsin (CHR-TRY is made 100) stood at 278%. Further, the “Relative Reactivity of Substrate to Each Enzyme, Try” value on Trypsin (setting [8]) is given as 278. Moreover, the “absorbance (O.D.) measured, FXa” value at Factor Xa [4] (setting [7]) was 0.008 O.D. Also, the “reactivity with factor Xa relative to CHR-TRY” value on Factor Xa [4] (CHR-TRY is made 100) is 19%. Also, the “Relative Reactivity of Substrate to Each Enzyme, FXa” value on Factor Xa [4] (setting [8]) turned out to be 9. Moreover, the “absorbance (O.D.) measured, TH” value on Thrombin [5] (setting [7]) turned out to be 0.006 O.D. Further, the “reactivity with thrombin relative to CHR-TRY” value at Thrombin [5] (CHR-TRY is made 100) was 12%. In addition, the “Relative Reactivity of Substrate to Each Enzyme, TH” value on Thrombin [5] (setting [8]) was determined as 12. For the same compound, the “absorbance (O.D.) measured, KL” value in the assay with Kallikrein (setting [7]) came out at 0.005 O.D. Also, the “absorbance (O.D.) measured, PL” value on Plasmin [6] (setting [7]) is given as 0.005 O.D. For the same compound, the “reactivity with plasmin relative to CHR-TRY” value at Plasmin [6] (CHR-TRY is made 100) is listed as 36%. For the same compound, the “Relative Reactivity of Substrate to Each Enzyme, PL” value on Plasmin [6] (setting [8]) came out at 36.
For `N=C(N)NCCC[C@H](NC(=O)[C@@H]1CCCCN1C(=O)[C@@H]1CCC(=O)N1)C(=O)Nc1ccc(O)c(C(=O)O)c1` [PS-1292], the “absorbance (O.D.) measured, Try” value on Trypsin (setting [7]) was found to be 0.814 O.D. The “absorbance (O.D.) measured, FXa” value at Factor Xa [4] (setting [7]) is listed as 0.007 O.D. On Thrombin [5] (setting [7]), the “absorbance (O.D.) measured, TH” value came to 0.021 O.D. The “absorbance (O.D.) measured, KL” value in the assay on Kallikrein (setting [7]) is reported as 0.002 O.D. Besides, the “absorbance (O.D.) measured, PL” value at Plasmin [6] (setting [7]) came out at 0.005 O.D.
In the case of `CC(C)[C@H](NC(=O)[C@@H]1CCC(=O)N1)C(=O)N[C@@H](CCCNC(=N)N)C(=O)Nc1ccc(O)c(C(=O)O)c1` [PS-1293, H--PyroGlu--Val--Arg--CHA.HCl], the “absorbance (O.D.) measured, Try” value on Trypsin (setting [7]) is 0.434 O.D. For the same compound, at Factor Xa [4] (setting [7]), the “absorbance (O.D.) measured, FXa” value is given as 0.007 O.D. Further, the “absorbance (O.D.) measured, TH” value at Thrombin [5] (setting [7]) was 0.002 O.D. In addition, in the assay on Kallikrein (setting [7]), the “absorbance (O.D.) measured, KL” value is reported as 0.002 O.D. Besides, the “absorbance (O.D.) measured, PL” value at Plasmin [6] (setting [7]) is 0.007 O.D.
Consider `CC[C@H](NC(=O)[C@@H]1CCC(=O)N1)C(=O)N[C@@H](CCCNC(=N)N)C(=O)Nc1ccc(O)c(C(=O)O)c1` [PS-1294, H--PyroGlu--But--Arg--CHA.HCl], for which the “absorbance (O.D.) measured, Try” value at Trypsin (setting [7]) was determined as 0.588 O.D. Also, the “absorbance (O.D.) measured, FXa” value at Factor Xa [4] (setting [7]) was found to be 0.010 O.D. The “absorbance (O.D.) measured, TH” value on Thrombin [5] (setting [7]) is listed as 0.003 O.D. The “absorbance (O.D.) measured, KL” value in the assay on Kallikrein (setting [7]) came out at 0.003 O.D. In addition, the “absorbance (O.D.) measured, PL” value on Plasmin [6] (setting [7]) is 0.008 O.D.
On to `CCC[C@H](NC(=O)[C@@H]1CCC(=O)N1)C(=O)N[C@@H](CCCNC(=N)N)C(=O)Nc1ccc(O)c(C(=O)O)c1` [PS-1295, H--PyroGlu--NVal--Arg--CHA.HCl], for which the “absorbance (O.D.) measured, Try” value on Trypsin (setting [7]) came to 0.637 O.D. Also, the “absorbance (O.D.) measured, FXa” value on Factor Xa [4] (setting [7]) is recorded as 0.008 O.D. The “absorbance (O.D.) measured, TH” value at Thrombin [5] (setting [7]) stood at 0.002 O.D. The “absorbance (O.D.) measured, KL” value with Kallikrein (setting [7]) was 0.006 O.D. On Plasmin [6] (setting [7]), the “absorbance (O.D.) measured, PL” value is on record as 0.008 O.D.
As for `CCCC[C@H](NC(=O)[C@@H]1CCC(=O)N1)C(=O)N[C@@H](CCCNC(=N)N)C(=O)Nc1ccc(O)c(C(=O)O)c1` [PS-1296, H--PyroGlu--NLeu--Arg--CHA.HCl], at Trypsin (setting [7]), the “absorbance (O.D.) measured, Try” value is reported as 0.656 O.D. Moreover, at Factor Xa [4] (setting [7]), the “absorbance (O.D.) measured, FXa” value is recorded as 0.008 O.D. In addition, the “absorbance (O.D.) measured, TH” value on Thrombin [5] (setting [7]) is given as 0.002 O.D. Further, the “absorbance (O.D.) measured, KL” value with Kallikrein (setting [7]) was found to be 0.006 O.D. Moreover, the “absorbance (O.D.) measured, PL” value at Plasmin [6] (setting [7]) was found to be 0.010 O.D.
On to `N=C(N)NCCC[C@H](NC(=O)CNC(=O)[C@H](N)CCC(=O)O)C(=O)Nc1ccc(O)c(C(=O)O)c1` [PS-1298, H--D--Glu--Gly--Arg--CHA.2HCl], for which, on Trypsin (setting [7]), the “absorbance (O.D.) measured, Try” value is listed as 0.401 O.D. In addition, the “absorbance (O.D.) measured, FXa” value on Factor Xa [4] (setting [7]) worked out at 0.004 O.D. Moreover, at Thrombin [5] (setting [7]), the “absorbance (O.D.) measured, TH” value is on record as 0.002 O.D. Also, the “absorbance (O.D.) measured, KL” value with Kallikrein (setting [7]) stood at 0.003 O.D. The “absorbance (O.D.) measured, PL” value at Plasmin [6] (setting [7]) was 0.004 O.D.
On to “H--D--PyroGlu--Ala--Arg--CHA.HCl [PS-1290]”, for which the “absorbance (O.D.) measured, Try” value at Trypsin (setting [7]) worked out at 0.403 O.D. The “absorbance (O.D.) measured, FXa” value at Factor Xa [4] (setting [7]) is recorded as 0.007 O.D. In addition, the “absorbance (O.D.) measured, TH” value on Thrombin [5] (setting [7]) amounted to 0.005 O.D. The “absorbance (O.D.) measured, KL” value with Kallikrein (setting [7]) came to 0.002 O.D. Further, the “absorbance (O.D.) measured, PL” value on Plasmin [6] (setting [7]) turned out to be 0.000 O.D.
In the case of “H--D--PyroGlu--Pro--Arg--CHA.HCl [PS-1291]”, the “absorbance (O.D.) measured, Try” value at Trypsin (setting [7]) is recorded as 0.556 O.D. The “absorbance (O.D.) measured, FXa” value at Factor Xa [4] (setting [7]) worked out at 0.007 O.D. For the same compound, at Thrombin [5] (setting [7]), the “absorbance (O.D.) measured, TH” value came to 0.012 O.D. The “absorbance (O.D.) measured, KL” value with Kallikrein (setting [7]) came to 0.002 O.D. Besides, the “absorbance (O.D.) measured, PL” value at Plasmin [6] (setting [7]) amounted to 0.004 O.D.

Source of the values: patent publication US5116941A, “Peptide substrates for determination of enzyme activity” (Nitto Boseki Co., Ltd., priority 1988, dated 1992).
